1 compound from US9505761B2, “Bicyclic compounds and their use as antibacterial agents and beta-lactamase inhibitors” (FEDORA PHARMACEUTICALS INC., priority 2011, dated 2016) can be followed below.

Common to all, as to experiment: β-lactamase inhibitory activity, spectrophotometric, nitrocefin
What all share (type): biochemical

The target of one assay is CMY-2 (Klebsiella pneumoniae, UniProt Q48434). Here is the method: (§1) The inhibitory activities of present compounds against various enzymes were measured by spectrophotometric assay using […] and using nitrocefin as a substrate (J. Antimicrob. Chemother., 28, pp 775-776 (1991)). The concentration of inhibitor (IC50) which inhibits by 50% the reaction of hydrolysis of nitrocefin by the enzyme is determined.

The next assay has as its target CTX-M-9 (Escherichia coli, UniProt Q9L5C8). Here is the method: as §1
A further assay concerns the target KPC-2 (Klebsiella pneumoniae, UniProt Q9F663). Here is the method:
as §1

The target in the next assay is TEM-1 (Escherichia coli, UniProt P62593). Particulars: nitrocefin substrate, 490 nM as printed. Here is the method:
as §1

As for `O=C(NO[C@H]1CCNC1)[C@@H]1CC[C@@H]2CN1C(=O)N2OS(=O)(=O)O` [Ex. 2, (2S,5R)-7-oxo-N-[(3S)-pyrrolidin-3-yloxy]-6-(sulfooxy)-1,6-diazabicyclo[3.2.1]octane-2-carboxamide], the IC50 at CMY-2 turned out to be 32 ± 3 nM; against CTX-M-9, 127 ± 9 nM; against KPC-2 it was 73 ± 7 nM; against TEM-1 it was 136 ± 12 nM.

Broadly, the IC50 is the point on the concentration scale where inhibition reaches its midpoint. Higher therefore signals weaker potency.
